In this experiment the target is NAE1 (APP-BP1/UBA3, NEDD8-activating enzyme E1 regulatory subunit) (Homo sapiens, UniProt Q13564). The experiment can be described thus: in vitro NEDD8 initiation conjugation assay. The class given is biochemical.
NAE1 (APP-BP1/UBA3, NEDD8-activating enzyme E1 regulatory subunit), sequence (Q13564 2-534): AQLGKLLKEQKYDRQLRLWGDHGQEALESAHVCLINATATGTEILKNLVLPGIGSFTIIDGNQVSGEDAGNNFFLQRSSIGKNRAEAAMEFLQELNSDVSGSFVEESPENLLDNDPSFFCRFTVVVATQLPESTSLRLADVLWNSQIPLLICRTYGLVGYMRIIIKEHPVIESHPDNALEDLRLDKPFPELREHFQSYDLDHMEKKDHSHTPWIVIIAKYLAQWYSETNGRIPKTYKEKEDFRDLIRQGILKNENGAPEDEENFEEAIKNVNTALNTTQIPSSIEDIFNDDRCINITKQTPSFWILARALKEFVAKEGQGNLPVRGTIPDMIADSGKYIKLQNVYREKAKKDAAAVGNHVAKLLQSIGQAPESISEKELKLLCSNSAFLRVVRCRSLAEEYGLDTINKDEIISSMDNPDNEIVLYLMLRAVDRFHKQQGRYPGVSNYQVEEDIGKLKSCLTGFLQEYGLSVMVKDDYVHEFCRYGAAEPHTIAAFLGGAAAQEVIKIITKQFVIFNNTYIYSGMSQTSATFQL
NAE1 (APP-BP1/UBA3, NEDD8-activating enzyme E1 regulatory subunit), sequence (Q8TBC4 2-463 partner): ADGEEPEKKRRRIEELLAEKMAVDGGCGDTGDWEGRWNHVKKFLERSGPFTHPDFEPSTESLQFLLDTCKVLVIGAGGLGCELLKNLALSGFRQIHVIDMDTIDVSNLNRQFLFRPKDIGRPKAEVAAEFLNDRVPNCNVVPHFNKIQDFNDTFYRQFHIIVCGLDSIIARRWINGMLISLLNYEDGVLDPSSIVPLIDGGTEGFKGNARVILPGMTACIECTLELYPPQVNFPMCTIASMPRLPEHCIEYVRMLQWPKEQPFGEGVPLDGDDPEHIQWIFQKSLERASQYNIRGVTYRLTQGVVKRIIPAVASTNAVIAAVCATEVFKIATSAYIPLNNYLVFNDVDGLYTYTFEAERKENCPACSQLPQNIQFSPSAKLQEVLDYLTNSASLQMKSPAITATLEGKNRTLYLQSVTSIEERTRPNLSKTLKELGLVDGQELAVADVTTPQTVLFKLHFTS
NAE1 (APP-BP1/UBA3, NEDD8-activating enzyme E1 regulatory subunit), sequence (P61081 whole entry partner): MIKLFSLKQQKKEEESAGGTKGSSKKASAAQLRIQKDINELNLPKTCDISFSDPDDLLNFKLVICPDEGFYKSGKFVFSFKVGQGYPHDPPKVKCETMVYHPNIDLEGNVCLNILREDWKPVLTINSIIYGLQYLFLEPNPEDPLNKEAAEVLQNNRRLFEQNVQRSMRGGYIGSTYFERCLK
NAE1 (APP-BP1/UBA3, NEDD8-activating enzyme E1 regulatory subunit), sequence (Q15843 1-76 partner): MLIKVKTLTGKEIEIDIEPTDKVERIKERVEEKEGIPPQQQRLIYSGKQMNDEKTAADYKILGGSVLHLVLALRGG

As a reminder, the IC50 is the concentration that gives 50% inhibition. A higher IC50 goes with a need for much substance. Turning to `CC(C)=CCc1c(O)c(CC=C(C)C)c2oc3c(O)ccc(O)c3c(=O)c2c1O` [Gartanin], the IC50 is roughly 10.3 µM.
